US8324268B2, “Substituted furancarboxamides, and use thereof” (AiCuris GmbH & Co. KG, priority 2008, dated 2012)

What was measured:
Type in all cases: cell-based
HIV-1NL4-3 wt = test: Light assay with wild-type HI reporter virus in MT4 7F2 cells; details: Human immunodeficiency virus 1, 2% FCS
Description: (§1) For the mixture for a 96-well MTP, 3 million MT4 7F2 cells are pelleted, suspended in 1 ml of RPMI 1640 medium without phenol red (Invitrogen, Karlsruhe, Germany)/10% FCS/10% AIM-V (Invitrogen, Karlsruhe, Germany) and incubated together with a suitable amount of the corresponding HIV-1NL4-3 reporter virus at 37° C. for 2 hours (pellet infection). Unadsorbed viruses are subsequently washed out with PBS, and the infected cells are pelleted again and suspended in 8 ml of RPMI 1640 medium without phenol red/2% or 10% FCS/10% AIM-V. 80 μl thereof are pipetted into each well of a white 96-well MTP with 20 μl of test substance in suitable dilution. To avoid edge effects, the wells on the edge of the MTP are not used for substance dilutions. The second vertical row of the MTP contains only infected cells (virus control) and the eleventh vertical row only uninfected cells (cell control), in each case in RPMI 1640 medium without phenol red/2% or 10% FCS/10% AIM-V. The other wells of the MTP contain the compounds of the invention in various concentrations starting from the third vertical row, from which the test substances are diluted in 3-fold steps up to the tenth vertical row 3^7-fold. The test substances are dissolved in DMSO, whereby the final DMSO concentration in the test mixture is 1%. The test mixtures are incubated at 37° C./5% CO2 for five days and, after the addition of 15 μl of Lu164 substrate (5 mg/ml coelenterazine dissolved in 30 μM glutathione/DMSO, 100 mM NaCl, 1M MES, 100 mM glutathione), evaluated by luminometry. The resulting values are in the region of 1 000 000 RLUs (relative light units) for the virus control and 300 to 400 RLUs for the cell control. The EC50 values of the test substances are determined as the concentration at which the virus replication measured in RLUs is 50% of the untreated infected cells.

HIV-1NL4-3 K103N-Y181C = test: Light assay with inhibitor-resistant HI reporter virus in MT4 7F2 cells; details: Human immunodeficiency virus 1, read-out: EC50 (nM) MT4 7F2 cells HIV-1NL4-3 K103N-Y181C 2% FCS
Description: as §1

HIV-1LAI = test: H9 assay with wild-type HIV-1 (HIV-1LAI supernatant infection, AlamarBlue); details: Human immunodeficiency virus 1, H9 cells, 10% FCS
Description: For the mixture for a 96-well MTP, 3 million PBLs are pelleted, suspended in 1 ml of RPMI 1640 medium/10% FCS and incubated together with a suitable amount of HIV-1LAI (NIH AIDS Research & Reference Reagent Program, Germantown, USA) at 37° C. for 2 hours (pellet infection). Unadsorbed viruses are subsequently washed out with PBS, and the infected cells are pelleted again and suspended in 18 ml of RPMI 1640 medium/10% FCS/interleukin-2 (40 U/ml). 180 μl thereof are pipetted into each well of a white 96-well MTP with 20 μl of test substance in suitable dilution. Alternatively, after preparation of the substance dilutions in the MTP, the HIV is pipetted in together with the cells and is not washed out again (supernatant infection). In order to avoid edge effects, the wells at the edge of the MTP are not used for substance dilutions. The second vertical row of the MTP contains only infected cells (virus control) and the eleventh vertical row only uninfected cells (cell control), in each case in RPMI 1640 medium/10% FCS/interleukin-2 (40 U/ml). The other wells of the MTP contain the compounds of the invention in various concentrations starting from the third vertical row, from which the test substances are diluted in 3-fold steps up to the tenth vertical row 3^7-fold. The test substances are dissolved in DMSO, whereby the final DMSO concentration in the test mixture is 1%. The test mixtures are incubated at 37° C./5% CO2. After 5 and 7 days, 50 μl of cell-free supernatant are removed from each well to determine the amount of p24 present by means of a p24 ELISA (HIV-1 p24^CA Antigen Capture Assay Kit, NCI-Frederick Cancer Research and Development Center, Frederick, USA). From the resulting values of the photometric evaluation (450/620 nm) the EC50 values of the test substances are determined as the concentration at which the amount of p24 is 50% of the untreated infected cells.
Alternatively, H9 cells (ATCC, Wesel, Germany) are employed instead of PBLs for testing the test substances. H9 cells are incubated in RPMI 1640 medium with 2% or 10% FCS as a HIV-ILAI supernatant infection at 37° C./5% CO2, (20 μl of substance dilution and 80 μl of cells/virus per well) in accordance with the pattern described above for 5 days. Subsequently, 10 μl of AlamarBlue® (Invitrogen, Karlsruhe, Germany) are added to each well, and the MTPs are incubated at 37° C. for 3 hours before the fluorimetric evaluation takes place (544/590 nm). The resulting values are about 40 000 for the untreated uninfected cells and about 7000 for the untreated infected cells. In the low concentration range, the EC50 values of the test substances are determined as the concentration at which the fluorescence is 50% of the untreated uninfected cells (in each case subtracting the values of the untreated infected cells). In addition, in the high concentration range, the CC50 values of the test substances are determined as the concentration at which the fluorescence is 50% of the untreated uninfected cells (in each case subtracting the values of the untreated infected cells).

Structure (SMILES) | EC50 (HIV-1NL4-3 wt) [nM] | EC50 (HIV-1NL4-3 K103N-Y181C) [nM] | EC50 (HIV-1LAI) [nM]
N#Cc1cccc(-c2oc(C(=O)N3CCSC3)cc2-c2cc(F)cc(Cl)c2)c1 [Example 1, 3-[3-(3-Chloro-5-fluorophenyl)-5-(1,3-thiazolidin-3-ylcarbonyl)furan-2-yl]benzenecarbonitrile] | 4.5 | 550 | 65
O=C(c1cc(-c2cc(F)cc(Cl)c2)c(-c2ccc(F)c(Cl)c2)o1)N1CCSC1 [Example 2, [5-(3-Chloro-4-fluorophenyl)-4-(3-chloro-5-fluorophenyl)furan-2-yl](1,3-thiazolidin-3-yl)methanone] | 40 | 1620 | 135
N#Cc1cccc(-c2oc(C(=O)N3CC[S+]([O-])C3)cc2-c2cc(F)cc(Cl)c2)c1 (stereo not drawn) [Example 3, 3-{3-(3-Chloro-5-fluorophenyl)-5-[(1-oxido-1,3-thiazolidin-3-yl)carbonyl]furan-2-yl}benzenecarbonitrile] | < 1.5 | 160 | 4.5
O=C(c1cc(-c2cc(F)cc(Cl)c2)c(-c2ccc(F)c(Cl)c2)o1)N1CC[S+]([O-])C1 (stereo not drawn) [Example 4, [5-(3-Chloro-4-fluorophenyl-1)-4-(3-chloro-5-fluorophenyl)furan-2-yl](1-oxido-1,3-thiazolidin-3-yl)methanone] | < 1.5 | 261 | 12
N#Cc1cccc(-c2oc(C(=O)N3CCS(=O)(=O)C3)cc2-c2cc(F)cc(Cl)c2)c1 [Example 5, 3-{3-(3-Chloro-5-fluorophenyl)-5-[(1,1-dioxido-1,3-thiazolidin-3-yl)carbonyl]furan-2-yl}benzenecarbonitrile] | < 1.5 | 305 | 17.5
O=C1CN(C(=O)c2cc(-c3cccc(Cl)c3)c(-c3ccc(F)cc3)o2)CCN1 [Example 6, 4-{[4-(3-Chlorophenyl)-5-(4-fluorophenyl)furan-2-yl]carbonyl}piperazin-2-one] | 48 | 283 | 400
O=C1CN(C(=O)c2cc(-c3cc(F)cc(Cl)c3)c(-c3ccc(F)c(Cl)c3)o2)CCN1 [Example 7, 4-{[5-(3-Chloro-4-fluorophenyl)-4-(3-chloro-5-fluorophenyl)furan-2-yl]carbonyl}piperazin-2-one] | 5 | 186 | 46
N#Cc1cccc(-c2oc(C(=O)N3CCNC(=O)C3)cc2-c2cc(F)cc(Cl)c2)c1 [Example 8, 3-{3-(3-Chloro-5-fluorophenyl)-5-[(3-oxopiperazin-1-yl)carbonyl]furan-2-yl}benzenecarbonitrile] | 1 | 160 | 7
O=C(c1cc(-c2cc(F)cc(Cl)c2)c(-c2ccc(F)c(Cl)c2)o1)N1CCOCC1 [Example 9, [5-(3-Chloro-4-fluorophenyl)-4-(3-chloro-5-fluorophenyl)furan-2-yl](morpholin-4-yl)methanone] | 19 | 500 | 100
N#Cc1cccc(-c2oc(C(=O)N3CC[C@@H](O)C3)cc2-c2cc(F)cc(Cl)c2)c1 [Example 10, 3-[3-(3-Chloro-5-fluorophenyl)-5-{[(3R)-3-hydroxypyrrolidin-1-yl]carbonyl}furan-2-yl]benzenecarbonitrile] | 1 | 183 | 14
N#Cc1cccc(-c2oc(C(=O)N3CNC(=O)C3)cc2-c2cc(F)cc(Cl)c2)c1 [Example 12, 3-{3-(3-Chloro-5-fluorophenyl)-5-[(4-oxoimidazolidin-1-yl)carbonyl]furan-2-yl}benzenecarbonitrile] | 2 | 163 | 30
O=C1CN(C(=O)c2cc(-c3cc(Cl)ccc3F)c(-c3cccc(Cl)c3)o2)CCN1 [Example 13, 4-{[4-(5-Chloro-2-fluorophenyl)-5-(3-chlorophenyl)furan-2-yl]carbonyl}piperazin-2-one] | 15 | 325 | 160
O=C1CN(C(=O)c2cc(-c3cc(F)cc(Cl)c3)c(-c3cccc(Cl)c3)o2)CCN1 [Example 14, 4-{[4-(3-Chloro-5-fluorophenyl)-5-(3-chlorophenyl)furan-2-yl]carbonyl}piperazin-2-one] | 1 | 173 | 52
O=C1CN(C(=O)c2cc(-c3cc(F)cc(F)c3)c(-c3cccc(Cl)c3)o2)CN1 [Example 15, 1-{[5-(3-Chlorophenyl-1)-4-(3,5-difluorophenyl)furan-2-yl]carbonyl}imidazolidin-4-one] | 9 | 350 | 110
O=C1CN(C(=O)c2cc(-c3cc(F)cc(Cl)c3)c(-c3cccc(Cl)c3)o2)CN1 [Example 16, 1-{[4-(3-Chloro-5-fluorophenyl)-5-(3-chlorophenyl)furan-2-yl]carbonyl}imidazolidin-4-one] | 2 | 200 | 75
O=C1CN(C(=O)c2cc(-c3cc(F)cc(F)c3)c(-c3cccc(Cl)c3)o2)CCN1 [Example 17, 4-{[5-(3-Chlorophenyl)-4-(3,5-difluorophenyl)furan-2-yl]carbonyl}piperazin-2-one] | 6 | 350 | 135
Cc1cccc(-c2oc(C(=O)N3CCNC(=O)C3)cc2-c2cccc(Cl)c2)c1 [Example 18, 4-{[4-(3-Chlorophenyl)-5-(3-methylphenyl)furan-2-yl]carbonyl}piperazin-2-one] | 45 | 300 | 200
O=C1CN(C(=O)c2cc(-c3cccc(Cl)c3)c(-c3ccc(F)c(F)c3)o2)CCN1 [Example 19, 4-{[4-(3-Chlorophenyl)-5-(3,4-difluorophenyl)furan-2-yl]carbonyl}piperazin-2-one] | 43 | 450 | 250
N#Cc1cccc(-c2oc(C(=O)N3CCNC(=O)C3)cc2-c2cccc(Cl)c2)c1 [Example 20, 3-{3-(3-Chlorophenol)-5-[(3-oxopiperazin-1-yl)carbonyl]furan-2-yl}benzenecarbonitrile] | 2 | 137 | 50
Cc1cc(-c2oc(C(=O)N3CCNC(=O)C3)cc2-c2cccc(Cl)c2)ccc1F [Example 21, 4-{[4-(3-Chlorophenyl)-5-(4-fluor-3-methylphenyl)furan-2-yl]carbonyl}piperazin-2-one] | 15 | 120 | 200
O=C1CN(C(=O)c2cc(-c3cccc(Cl)c3)c(-c3ccc(F)c(Cl)c3)o2)CCN1 [Example 22, 4-{[5-(3-Chloro-4-fluorophenyl)-4-(3-chlorophenyl)furan-2-yl]carbonyl}piperazin-2-one] | 7 | 185 | 113
